Results taken from US9394305B2, “Substituted imidazo[1,2-a]pyridine compounds as tropomyosin receptor kinase a (TrkA) inhibitors” (Dr. Reddy's Laboratories Ltd., priority 2014, dated 2016).

biological target: T1, TrkA kinase (Homo sapiens, UniProt P04629); assay: In vitro TrkA inhibitory activity using TR-FRET assay; type: biochemical; conditions: 5 ng TrkA, 500 μM ATP, values given as bins, read-out: TrkA inhibition in-vitro IC50
T1 construct: purchased Upstate, USA
Procedure: Compounds were screened in the TR-FRET assay with TrkA kinase. 5 ng of TrkA [Upstate, USA] kinase was used for assay. The compound was incubated with the kinase for 30 minutes at 20-35° C. After the incubation, substrate mix [40 nM Ultra light poly GT (Perkin Elmer, USA) and 500 μM ATP] was added. The above reaction was stopped by the addition of 40 mM EDTA after 30 minutes. The Eu-labelled antiphospho-tyrosine antibody [Perkin Elmer, USA] was added at 0.5 nM and the fluorescence emission at 615 nm/665 nm [excitation at 340 nm] was measured. The compounds were initially screened at 100 nM, 1 μM and 10 μM concentrations. The potent compounds with >25% inhibition at 1 μM of TrkA were taken for the full dose response studies. The final DMSO concentration in the assay was […]. For IC50 determination, ⅓^rd serial dilution was made from the 20 mM DMSO stock solution. 2 μl of these were transferred to the test wells containing 20 μl reaction mixture [Total reaction volume 22 μl]. The fluorescence was measured in Perkin Elmer Wallac 1420 Multilabel Counter Victor 3. The IC50 was determined by fitting the dose response data to a sigmoidal curve fitting equation using GraphPad Prism software version 5.

T1 sequence (P04629 33-796): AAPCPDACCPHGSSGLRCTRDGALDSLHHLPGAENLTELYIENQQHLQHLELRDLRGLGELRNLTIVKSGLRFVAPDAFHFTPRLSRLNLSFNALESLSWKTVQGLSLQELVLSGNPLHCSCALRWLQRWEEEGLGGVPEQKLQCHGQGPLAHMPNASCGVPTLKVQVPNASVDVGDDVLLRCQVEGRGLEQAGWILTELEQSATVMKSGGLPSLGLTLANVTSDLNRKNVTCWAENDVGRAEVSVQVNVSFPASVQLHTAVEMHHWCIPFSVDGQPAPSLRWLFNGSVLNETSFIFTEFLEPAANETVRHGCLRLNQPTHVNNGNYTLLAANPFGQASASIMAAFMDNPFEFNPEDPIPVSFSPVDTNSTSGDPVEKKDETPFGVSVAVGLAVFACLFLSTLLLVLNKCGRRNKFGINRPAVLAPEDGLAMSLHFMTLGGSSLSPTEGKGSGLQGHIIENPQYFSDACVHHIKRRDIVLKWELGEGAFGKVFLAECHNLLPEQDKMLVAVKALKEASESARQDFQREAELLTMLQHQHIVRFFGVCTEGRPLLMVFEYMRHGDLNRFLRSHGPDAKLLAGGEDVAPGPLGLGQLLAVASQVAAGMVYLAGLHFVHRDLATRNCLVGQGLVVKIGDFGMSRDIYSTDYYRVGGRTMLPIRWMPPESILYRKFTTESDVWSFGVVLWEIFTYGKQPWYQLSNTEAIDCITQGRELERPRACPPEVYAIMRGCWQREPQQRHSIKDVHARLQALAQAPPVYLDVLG

Q: With `CCOC(=O)CNC(=O)c1cnc2ccc(N3CCC[C@H]3c3cc(F)ccc3F)cn12` (single isomer, unassigned) [Example 18, Ethyl 2-(6-(2-(2,5-difluorophenyl)pyrrolidin-1-yl)imidazo[1,2-a]pyridine-3-carboxamido)acetate] as the molecule, how does the IC50 read?
A: The IC50 was 100 to 500 nM.

Q: For `O=C(O)CNC(=O)c1cnc2ccc(N3CCC[C@H]3c3cc(F)ccc3F)cn12` (single isomer, unassigned) [Example 19, 2-(6-(2-(2,5-difluorophenyl)pyrrolidin-1-yl)imidazo[1,2-a]pyridine-3-carboxamido)acetic acid], which IC50 is on record?
A: Its IC50 is 100 to 500 nM.

Q: `CCN(C)S(=O)(=O)NC(=O)c1cnc2ccc(N3CCCC3c3cc(F)ccc3O[C@@H]3CCOC3)cn12` (single isomer, unassigned) [Example 63] was tested. Which IC50 did it give?
A: Its IC50 is at most 50 nM.

Q: `CC1(S(=O)(=O)NC(=O)c2cnc3ccc(N4CCCCC4c4cc(F)ccc4F)cn23)CC1` (single isomer, unassigned) [Example 69, 6-(2-(2,5-difluorophenyl)piperidin-1-yl)-N-((1-methylcyclo-propyl)sulfonyl)imidazo[1,2-a]pyridine-3-carboxamide] was tested. Which IC50 did it give?
A: Its IC50 is at most 50 nM.

Q: Which IC50 does the source give for `CN(CCF)S(=O)(=O)NC(=O)c1cnc2ccc(N3CCCC3c3cc(F)cc4c3OCCO4)cn12` (single isomer, unassigned) [Example 71, 6-(2-(7-fluoro-2,3-dihydrobenzo[b][1,4]dioxin-5-yl)pyrrolidin-1-yl)-N-(N-(2-fluoroethyl)-N-methylsulfamoyl)imidazo[1,2-a]pyridine-3-carboxamide] here?
A: The IC50 was 100 to 500 nM.

Q: For `CCN(C)S(=O)(=O)NC(=O)c1cnc2ccc(N3CCCC3c3cc(F)cc4c3OCCO4)cn12` (single isomer, unassigned) [Example 72, N-(N-ethyl-N-methylsulfamoyl)-6-(2-(7-fluoro-2,3-dihydrobenzo [b][1,4]dioxin-5-yl)pyrrolidin-1-yl)imidazo[1,2-a]pyridine-3-carboxamide], which IC50 is on record?
A: Its IC50 is 100 to 500 nM.

Q: For `O=C(c1cnc2ccc(N3CCCC3c3cc(F)ccc3F)cn12)N1CC(O)C1` (single isomer, unassigned) [Example 73, (6-(2-(2,5-difluorophenyl)pyrrolidin-1-yl)imidazo[1,2-a]pyridine-3 yl)(3-hydroxyazetidin-1-yl)methanone], which IC50 is on record?
A: Its IC50 is at most 50 nM.

Q: `O=C(Nc1ccc(F)cc1)c1cnc2ccc(N3CCCC3c3cc(F)ccc3F)cn12` (stereo not shown) [Example 1, 6-(2-(2,5-difluorophenyl)pyrrolidin-1-yl)-N-(4-fluorophenyl)imidazo[1,2-a]pyridine-3-carboxamide] was tested. Which IC50 did it give?
A: The IC50 was at most 50 nM.

Q: `O=C(Nc1cnc2ccc(N3CCCC3c3cc(F)ccc3F)cn12)N1CC[C@H](O)C1` (stereo partly shown) [Example 2, (3 S)—N-(6-(2-(2,5-difluorophenyl)pyrrolidin-1-yl)imidazo[1,2-a]pyridin-3-yl)-3-hydroxypyrrolidine-1-carboxamide] was tested. Which IC50 did it give?
A: Its IC50 is 100 to 500 nM.

Q: With `O=C(c1cnc2ccc(N3CCCC3c3cc(F)ccc3F)cn12)N1CC[C@H](O)C1` (stereo partly drawn) [Example 3, (6-(2-(2,5-difluorophenyl)pyrrolidin-1-yl)imidazo[1,2-a]pyridin-3-yl)((S)-3-hydroxypyrrolidin-1-yl)methanone] as the molecule, how does the IC50 read?
A: The IC50 was at most 50 nM.

Q: With `O=C(c1cnc2ccc(N3CCCC3c3cc(F)ccc3F)cn12)N1CC(O)C1` (stereo not shown) [Example 4, (6-(2-(2,5-difluorophenyl)pyrrolidin-1-yl)imidazo[1,2-a]pyridin-3-yl)(3-hydroxyazetidin-1-yl)methanone] as the molecule, how does the IC50 read?
A: Its IC50 is at most 50 nM.

Q: `O=C(NC(CO)CO)c1cnc2ccc(N3CCCC3c3cc(F)ccc3F)cn12` (stereo not shown) [Example 5, 6-(2-(2,5-difluorophenyl)pyrrolidin-1-yl)-N-(1,3-dihydroxypropan-2-yl)imidazo[1,2-a]pyridine-3-carboxamide] was tested. Which IC50 did it give?
A: The IC50 was at most 50 nM.

Q: Which IC50 does the source give for `CN(C)C(=O)c1cnc2ccc(N3CCCC3c3cc(F)ccc3F)cn12` (stereo not shown) [Example 8, 6-(2-(2,5-difluorophenyl)pyrrolidin-1-yl)-N,N-dimethylimidazo[1,2-a]pyridine-3-carboxamide] here?
A: The IC50 was 100 to 500 nM.

Q: With `O=C(c1ccc(F)cc1)c1cnc2ccc(N3CCCC3c3cc(F)ccc3F)cn12` (stereo not shown) [Example 10, (6-(2-(2,5-difluorophenyl)pyrrolidin-1-yl)imidazo[1,2-a]pyridin-3-yl)(4-fluorophenyl)methanone] as the molecule, how does the IC50 read?
A: Its IC50 is 50 to 100 nM.

Q: For `CC(CO)(CO)NC(=O)c1cnc2ccc(N3CCC[C@@H]3c3cc(F)ccc3F)cn12` [Example 24, (R)-6-(2-(2,5-difluorophenyl)pyrrolidin-1-yl)-N-(1,3-dihydroxy-2-methylpropan-2-yl)imidazo[1,2-a]pyridine-3-carboxamide], which IC50 is on record?
A: Its IC50 is 100 to 500 nM.

Q: With `O=C(NC[C@H](O)CO)c1cnc2ccc(N3CCC[C@@H]3c3cc(F)ccc3F)cn12` [Example 25, 6-((R)-2-(2,5-difluorophenyl)pyrrolidin-1-yl)-N—((S)-2,3-dihydroxypropyl)imidazo[1,2-a]pyridine-3-carboxamide] as the molecule, how does the IC50 read?
A: The IC50 was 50 to 100 nM.

same assay, conditions: 5 ng TrkA, 500 μM ATP, values given as bins, read-out: TrkA inhibitory activity in-vitro IC50

Q: How did the IC50 turn out when `CC1(S(=O)(=O)NC(=O)c2cnc3ccc(N4CCCCC4c4cc(F)cc5c4OCCO5)cn23)CC1` (single isomer, unassigned) [Example 52, 6-(2-(7-fluoro-2,3-dihydrobenzo[b][1,4]dioxin-5-yl)piperidin-1-yl)-N-((1-methylcyclopropyl)sulfonyl)imidazo[1,2-a]pyridine-3-carboxamide] was run?
A: The IC50 was 1000 to 10000 nM.

Q: Which IC50 does the source give for `CCN(C)S(=O)(=O)NC(=O)c1cnc2ccc(N3CCCC3c3cc(F)ccc3O[C@@H]3CCOC3)cn12` (single isomer, unassigned) [Example 64] here?
A: Its IC50 is 1000 to 10000 nM.

Q: For `CC(C)(C)S(=O)(=O)NC(=O)c1cnc2ccc(N3CCCC3c3cc(F)ccc3O[C@@H]3CCOC3)cn12` (single isomer, unassigned) [Example 66], which IC50 is on record?
A: Its IC50 is 1000 to 10000 nM.

Q: How did the IC50 turn out when `CCN(C)S(=O)(=O)NC(=O)c1cnc2ccc(N3CCCCC3c3cc(F)ccc3F)cn12` (single isomer, unassigned) [Example 70, 6-(2-(2,5-difluorophenyl)piperidin-1-yl)-N-(N-ethyl-N-methyl-sulfamoyl)imidazo[1,2-a]pyridine-3-carboxamide] was run?
A: The IC50 was 1000 to 10000 nM.

Q: `O=C(c1cnc2ccc(N3CCCC3c3cc(F)ccc3F)cn12)N1CCOCC1` (stereo not shown) [Example 6, (6-(2-(2,5-difluorophenyl)pyrrolidin-1-yl)imidazo[1,2-a]pyridin-3-yl)(morpholino)methanone] was tested. Which IC50 did it give?
A: Its IC50 is 1000 to 10000 nM.

Q: Which IC50 does the source give for `CN1CCN(C(=O)c2cnc3ccc(N4CCCC4c4cc(F)ccc4F)cn23)CC1` (stereo not shown) [Example 9, (6-(2-(2,5-difluorophenyl)pyrrolidin-1-yl)imidazo[1,2-a]pyridin-3-yl)(4-methylpiperazin-1-yl)methanone] here?
A: Its IC50 is 1000 to 10000 nM.

Q: For `CN(C)C(=O)Nc1cnc2ccc(N3CCCC3c3cc(F)ccc3F)cn12` (stereo not shown) [Example 11, 3-(6-(2-(2,5-difluorophenyl)pyrrolidin-1-yl)imidazo[1,2-a]pyridin-3-yl)-1,1-dimethylurea], which IC50 is on record?
A: Its IC50 is 1000 to 10000 nM.

same assay, conditions: bin with mixed units (lower bound nM, upper bound μM), read-out: TrkA inhibitory activity in-vitro IC50

Q: With `O=C(NC12CC3CC(CC(O)(C3)C1)C2)c1cnc2ccc(N3CCC[C@@H]3c3cc(F)ccc3F)cn12` [Example 23, 6-((R)-2-(2,5-difluorophenyl)pyrrolidin-1-yl)-N-((1r,3S,5R,7S)-3-hydroxyadamantan-1-yl)imidazo[1,2-a]pyridine-3-carboxamide] as the molecule, how does the IC50 read?
A: Its IC50 is 500 to 1000 nM.

Q: `CC1(O)CN(C(=O)c2cnc3ccc(N4CCC[C@@H]4c4cc(F)ccc4F)cn23)C1` [Example 26, (R)-(6-(2-(2,5-difluorophenyl)pyrrolidin-1-yl)imidazo[1,2-a]pyridin-3-yl)(3-hydroxy-3-methylazetidin-1-yl)methanone] was tested. Which IC50 did it give?
A: Its IC50 is 500 to 1000 nM.
